Measured values as given in PMC5404560, “Towards Selective Mycobacterial ClpP1P2 Inhibitors with Reduced Activity against the Human Proteasome” (Antimicrobial Agents and Chemotherapy, 2017).
≈ marks a conversion by molar mass, not a printed value. Counter-ions that a name gives are not always drawn. Like-named read-outs stand apart in the source and are kept apart here. Residues, ends and D or L forms follow the SMILES beside them.

Experiments:
[1] = system: M. smegmatis ΔprcAB; type: cell-based; conditions: 24 h exposure, OD600; concentration inhibiting 50% of growth
[2] = system: M. tuberculosis H37Rv; test: microbe, parasite or virus in culture; type: cell-based
[3] = target: ClpP1P2 (Mycolicibacterium smegmatis, UniProt A0R197+A0R198); test: ClpP1P2 inhibition whole-cell RFP-SsrA reporter assay; conditions: 3 h incubation
ClpP1P2, sequence (A0R198 4-203): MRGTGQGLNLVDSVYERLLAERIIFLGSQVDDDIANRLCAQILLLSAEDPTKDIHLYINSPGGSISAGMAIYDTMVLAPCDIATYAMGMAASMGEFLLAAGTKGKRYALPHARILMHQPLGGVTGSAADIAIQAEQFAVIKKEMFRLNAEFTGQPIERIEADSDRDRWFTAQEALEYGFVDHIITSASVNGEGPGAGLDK
ClpP1P2, sequence (A0R197 17-218): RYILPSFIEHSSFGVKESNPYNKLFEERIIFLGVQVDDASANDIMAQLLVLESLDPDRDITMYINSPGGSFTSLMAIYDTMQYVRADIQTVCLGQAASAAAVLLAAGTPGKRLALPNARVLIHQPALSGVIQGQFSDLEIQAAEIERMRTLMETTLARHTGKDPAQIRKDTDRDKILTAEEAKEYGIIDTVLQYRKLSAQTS

[4] = target: HepG2 proteasome (Homo sapiens, UniProt P20618+P28074); test: Cell-based proteasome CT-like peptidase inhibition assay (Proteasome-Glo)
Method: A cell-based CT-like peptidase assay was performed using the Proteasome-Glo cell-based assay reagent (Promega) according to the manufacturer's guidelines. Briefly, HepG2 cells (10^4 cells/well) were treated with the compounds indicated in the figures for 2 h, followed by incubation with the luminescent substrate for 10 min. Luminescence was detected with a Tecan M200 Pro plate reader.

[5] = target: T1, Calpain 1 (Homo sapiens, UniProt P07384); test: Protease panel: Calpain 1; type: biochemical; conditions: supplement panel table, test and control compound
T1 construct: Reaction Biology Corporation (contract testing)

[6] = target: T2, Cathepsin B (Homo sapiens, UniProt P07858); test: Protease panel: Cathepsin B; type: biochemical; conditions: supplement panel table, test and control compound
T2 construct: Reaction Biology Corporation (contract testing)

[7] = target: T3, Cathepsin C (Homo sapiens, UniProt P53634); test: Protease panel: Cathepsin C; type: biochemical; conditions: supplement panel table, test and control compound
T3 construct: Reaction Biology Corporation (contract testing)

[8] = target: Cathepsin H (Homo sapiens, UniProt P09668); test: Protease panel: Cathepsin H; type: biochemical; conditions: supplement panel table, test and control compound
[9] = target: Cathepsin L (Homo sapiens, UniProt P07711); test: Protease panel: Cathepsin L; type: biochemical; conditions: supplement panel table, test and control compound
Cathepsin L, sequence (P07711 114-333, species assumed): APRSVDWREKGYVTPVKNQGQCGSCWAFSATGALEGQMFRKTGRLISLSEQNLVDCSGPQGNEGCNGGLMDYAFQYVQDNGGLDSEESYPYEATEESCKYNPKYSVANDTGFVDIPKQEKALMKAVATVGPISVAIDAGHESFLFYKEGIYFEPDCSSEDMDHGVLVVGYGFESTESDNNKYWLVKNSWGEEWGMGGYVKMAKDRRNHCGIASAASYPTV

[10] = target: Cathepsin S (Homo sapiens, UniProt P25774); test: Protease panel: Cathepsin S; type: biochemical; conditions: supplement panel table, test and control compound
[11] = target: Cathepsin V (Homo sapiens, UniProt O60911); test: Protease panel: Cathepsin V; type: biochemical; conditions: supplement panel table, test and control compound
Cathepsin V, sequence (O60911 114-334, species assumed): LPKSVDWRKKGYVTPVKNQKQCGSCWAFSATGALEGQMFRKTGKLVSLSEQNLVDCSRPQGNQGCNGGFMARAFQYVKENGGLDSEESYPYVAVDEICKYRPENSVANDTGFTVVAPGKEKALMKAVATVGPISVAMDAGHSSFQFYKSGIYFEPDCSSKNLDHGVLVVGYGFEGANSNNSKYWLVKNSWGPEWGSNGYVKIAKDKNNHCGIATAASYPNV

[12] = target: T4, Papain (Carica papaya, UniProt P00784); test: Protease panel: Papain; type: biochemical; conditions: supplement panel table, test and control compound
T4 construct: Reaction Biology Corporation (contract testing)
T4 sequence (P00784 134-345): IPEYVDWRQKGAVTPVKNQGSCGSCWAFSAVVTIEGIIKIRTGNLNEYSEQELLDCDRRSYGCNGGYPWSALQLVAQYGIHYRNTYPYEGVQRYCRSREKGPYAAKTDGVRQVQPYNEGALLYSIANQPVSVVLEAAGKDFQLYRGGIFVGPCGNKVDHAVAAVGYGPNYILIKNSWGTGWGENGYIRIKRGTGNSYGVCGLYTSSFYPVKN

[13] = target: T5, Caspase 7 (Homo sapiens, UniProt P55210); test: Protease panel: Caspase 7; type: biochemical; conditions: supplement panel table, test and control compound
T5 construct: Reaction Biology Corporation (contract testing)

[14] = target: T6, ADAM10 (Homo sapiens, UniProt O14672); test: Protease panel: ADAM10; type: biochemical; conditions: supplement panel table, test and control compound
T6 construct: Reaction Biology Corporation (contract testing)
T6 sequence (O14672 214-748, species assumed): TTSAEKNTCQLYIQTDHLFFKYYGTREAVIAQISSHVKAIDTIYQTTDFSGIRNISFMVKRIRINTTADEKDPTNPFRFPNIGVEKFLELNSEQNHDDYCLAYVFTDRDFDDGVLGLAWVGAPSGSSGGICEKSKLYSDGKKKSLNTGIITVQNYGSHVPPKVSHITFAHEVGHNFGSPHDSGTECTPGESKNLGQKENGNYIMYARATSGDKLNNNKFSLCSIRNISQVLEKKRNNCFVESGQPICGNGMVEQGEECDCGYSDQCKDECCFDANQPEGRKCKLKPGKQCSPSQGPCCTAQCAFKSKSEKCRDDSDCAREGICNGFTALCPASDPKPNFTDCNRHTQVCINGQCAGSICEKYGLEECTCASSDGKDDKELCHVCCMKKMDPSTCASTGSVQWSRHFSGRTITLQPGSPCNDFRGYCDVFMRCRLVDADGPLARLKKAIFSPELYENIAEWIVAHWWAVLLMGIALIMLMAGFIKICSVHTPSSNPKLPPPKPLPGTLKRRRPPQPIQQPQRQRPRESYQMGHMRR

[15] = target: MMP 3 (Homo sapiens, UniProt P08254); test: Protease panel: MMP 3; type: biochemical; conditions: supplement panel table, test and control compound
Method: (§1) Protease panel testing was carried out by Reaction Biology Corporation.

[16] = target: MMP 7 (Homo sapiens, UniProt P09237); test: Protease panel: MMP 7; type: biochemical; conditions: supplement panel table, test and control compound
MMP 7, sequence (P09237 95-267, species assumed): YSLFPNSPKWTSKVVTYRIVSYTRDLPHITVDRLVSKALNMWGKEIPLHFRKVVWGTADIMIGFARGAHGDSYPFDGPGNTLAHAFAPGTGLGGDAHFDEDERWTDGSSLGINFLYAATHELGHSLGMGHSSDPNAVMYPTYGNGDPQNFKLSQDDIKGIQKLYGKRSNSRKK
Method: as §1

[17] = target: T7, MMP 12 (Homo sapiens, UniProt P39900); test: Protease panel: MMP 12; type: biochemical; conditions: supplement panel table, test and control compound
T7 construct: Reaction Biology Corporation (contract testing)
Method: as §1

[18] = target: MMP 14 (Homo sapiens, UniProt P50281); test: Protease panel: MMP 14; type: biochemical; conditions: supplement panel table, test and control compound
Method: as §1

[19] = target: MMP 13 (Homo sapiens, UniProt P45452); test: biochemical
[20] = target: TACE (Homo sapiens, UniProt P78536); test: biochemical
TACE, sequence (P78536 215-824): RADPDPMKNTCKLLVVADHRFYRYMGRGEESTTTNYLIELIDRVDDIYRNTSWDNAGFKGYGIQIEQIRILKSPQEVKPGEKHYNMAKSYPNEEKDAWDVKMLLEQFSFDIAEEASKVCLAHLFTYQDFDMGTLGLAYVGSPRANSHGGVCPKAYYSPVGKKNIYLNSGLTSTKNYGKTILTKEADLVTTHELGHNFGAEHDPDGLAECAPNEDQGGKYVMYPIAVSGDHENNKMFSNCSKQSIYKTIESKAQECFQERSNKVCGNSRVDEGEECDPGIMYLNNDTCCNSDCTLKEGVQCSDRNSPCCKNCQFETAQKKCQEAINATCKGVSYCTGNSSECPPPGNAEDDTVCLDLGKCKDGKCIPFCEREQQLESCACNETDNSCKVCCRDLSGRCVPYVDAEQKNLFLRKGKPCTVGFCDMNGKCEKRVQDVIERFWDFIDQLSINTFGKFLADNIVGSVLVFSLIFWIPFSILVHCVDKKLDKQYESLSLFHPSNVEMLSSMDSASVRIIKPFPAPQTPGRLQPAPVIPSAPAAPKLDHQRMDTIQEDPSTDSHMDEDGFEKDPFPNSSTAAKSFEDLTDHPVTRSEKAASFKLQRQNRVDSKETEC

[21] = target: Elastase; test: Protease panel: Elastase; type: biochemical; conditions: supplement panel table, test and control compound
[22] = target: T8, FXa (Homo sapiens, UniProt P00742); test: Protease panel: FXa; type: biochemical; conditions: supplement panel table, test and control compound
T8 construct: FXa serine peptidase

[23] = target: Kallikrein 5 (Homo sapiens, UniProt Q9Y337); test: Protease panel: Kallikrein 5; type: biochemical; conditions: supplement panel table, test and control compound
[24] = target: Kallikrein 7 (Homo sapiens, UniProt P49862); test: Protease panel: Kallikrein 7; type: biochemical; conditions: supplement panel table, test and control compound
Kallikrein 7, sequence (P49862 30-253, species assumed): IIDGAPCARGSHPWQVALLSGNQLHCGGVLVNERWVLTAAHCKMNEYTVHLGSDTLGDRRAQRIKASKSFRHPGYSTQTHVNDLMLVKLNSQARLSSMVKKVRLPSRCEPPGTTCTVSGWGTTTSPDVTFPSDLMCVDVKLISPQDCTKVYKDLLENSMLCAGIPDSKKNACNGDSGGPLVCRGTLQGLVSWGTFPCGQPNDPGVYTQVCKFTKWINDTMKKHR

[25] = target: Kallikrein 12 (Homo sapiens, UniProt Q9UKR0); test: Protease panel: Kallikrein 12; type: biochemical; conditions: supplement panel table, test and control compound
[26] = target: Kallikrein 13 (Homo sapiens, UniProt Q9UKR3); test: Protease panel: Kallikrein 13; type: biochemical; conditions: supplement panel table, test and control compound
Kallikrein 13, sequence (Q9UKR3 17-277, species assumed): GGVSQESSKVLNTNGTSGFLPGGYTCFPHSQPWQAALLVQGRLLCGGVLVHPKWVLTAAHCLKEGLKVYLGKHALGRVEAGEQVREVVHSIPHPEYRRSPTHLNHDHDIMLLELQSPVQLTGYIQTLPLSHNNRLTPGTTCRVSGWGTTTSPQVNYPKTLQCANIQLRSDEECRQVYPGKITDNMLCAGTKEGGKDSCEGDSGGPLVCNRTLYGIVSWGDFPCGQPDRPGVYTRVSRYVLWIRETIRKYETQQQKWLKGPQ

[27] = target: Kallikrein 14 (Homo sapiens, UniProt Q9P0G3); test: Protease panel: Kallikrein 14; type: biochemical; conditions: supplement panel table, test and control compound
[28] = target: Matriptase 2 (Homo sapiens, UniProt Q8IU80); test: Protease panel: Matriptase 2; type: biochemical; conditions: supplement panel table, test and control compound
[29] = target: T9, Plasma kallikrein (Homo sapiens, UniProt P03952); test: Protease panel: Plasma kallikrein; type: biochemical; conditions: supplement panel table, test and control compound
T9 construct: Reaction Biology Corporation (contract testing)

[30] = target: T10, Plasmin (Homo sapiens, UniProt P00747); test: Protease panel: Plasmin; type: biochemical; conditions: supplement panel table, test and control compound
T10 construct: Reaction Biology Corporation (contract testing)
T10 sequence (P00747 581-810 limits assumed, species assumed): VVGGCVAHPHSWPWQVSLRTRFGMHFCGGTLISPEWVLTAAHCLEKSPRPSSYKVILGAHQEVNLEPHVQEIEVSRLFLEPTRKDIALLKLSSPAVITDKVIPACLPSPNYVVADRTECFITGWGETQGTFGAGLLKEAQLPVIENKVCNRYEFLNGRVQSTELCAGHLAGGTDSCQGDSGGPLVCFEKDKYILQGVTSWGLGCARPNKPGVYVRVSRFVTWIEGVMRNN
T10 sequence (P00747 97-580 partner limits assumed, species assumed): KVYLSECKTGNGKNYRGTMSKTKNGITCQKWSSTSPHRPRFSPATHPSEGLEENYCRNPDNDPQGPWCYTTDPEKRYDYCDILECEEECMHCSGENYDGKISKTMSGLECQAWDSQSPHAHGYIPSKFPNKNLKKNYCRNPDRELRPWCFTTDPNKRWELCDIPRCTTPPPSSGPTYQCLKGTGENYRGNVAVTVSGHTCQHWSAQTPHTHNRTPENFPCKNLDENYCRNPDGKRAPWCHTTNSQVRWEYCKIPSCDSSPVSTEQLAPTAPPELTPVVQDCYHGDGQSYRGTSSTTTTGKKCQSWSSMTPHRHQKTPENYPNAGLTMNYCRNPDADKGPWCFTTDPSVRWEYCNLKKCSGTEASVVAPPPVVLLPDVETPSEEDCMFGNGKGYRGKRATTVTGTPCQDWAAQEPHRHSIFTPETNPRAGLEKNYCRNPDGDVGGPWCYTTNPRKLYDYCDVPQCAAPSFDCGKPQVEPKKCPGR

[31] = target: T11, Thrombin a (Homo sapiens, UniProt P00734); test: Protease panel: Thrombin a; type: biochemical; conditions: supplement panel table, test and control compound
T11 construct: Reaction Biology Corporation (contract testing)

[32] = system: Trypsin; test: Protease panel: Trypsin; type: biochemical; conditions: supplement panel table, test and control compound
[33] = target: T12, Tryptase b2 (Homo sapiens, UniProt P20231); test: Protease panel: Tryptase b2; type: biochemical; conditions: supplement panel table, test and control compound
T12 construct: Reaction Biology Corporation (contract testing)

[34] = target: T13, Tryptase g1 (Homo sapiens, UniProt Q9NRR2); test: Protease panel: Tryptase g1; type: biochemical; conditions: supplement panel table, test and control compound
T13 construct: Reaction Biology Corporation (contract testing)

[35] = target: T14, Urokinase (Homo sapiens, UniProt P00749); test: Protease panel: Urokinase; type: biochemical; conditions: supplement panel table, test and control compound
T14 construct: Reaction Biology Corporation (contract testing)

[36] = target: T15, Caspase 1 (Homo sapiens, UniProt P29466); test: Protease panel: Caspase 1; type: biochemical; conditions: supplement panel table, test and control compound
T15 construct: Reaction Biology Corporation (contract testing)
T15 sequence (P29466 120-404, species assumed): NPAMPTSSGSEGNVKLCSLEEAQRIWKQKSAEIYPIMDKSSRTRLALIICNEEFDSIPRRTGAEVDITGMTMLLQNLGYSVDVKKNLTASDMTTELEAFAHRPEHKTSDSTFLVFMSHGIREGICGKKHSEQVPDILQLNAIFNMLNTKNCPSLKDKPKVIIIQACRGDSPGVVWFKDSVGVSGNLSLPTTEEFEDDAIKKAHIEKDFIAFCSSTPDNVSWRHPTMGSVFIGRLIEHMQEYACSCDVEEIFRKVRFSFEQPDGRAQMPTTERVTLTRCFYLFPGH

[37] = target: T16, Caspase 2 (Homo sapiens, UniProt P42575); test: Protease panel: Caspase 2; type: biochemical; conditions: supplement panel table, test and control compound
T16 construct: Reaction Biology Corporation (contract testing)
T16 sequence (P42575 whole entry, species assumed): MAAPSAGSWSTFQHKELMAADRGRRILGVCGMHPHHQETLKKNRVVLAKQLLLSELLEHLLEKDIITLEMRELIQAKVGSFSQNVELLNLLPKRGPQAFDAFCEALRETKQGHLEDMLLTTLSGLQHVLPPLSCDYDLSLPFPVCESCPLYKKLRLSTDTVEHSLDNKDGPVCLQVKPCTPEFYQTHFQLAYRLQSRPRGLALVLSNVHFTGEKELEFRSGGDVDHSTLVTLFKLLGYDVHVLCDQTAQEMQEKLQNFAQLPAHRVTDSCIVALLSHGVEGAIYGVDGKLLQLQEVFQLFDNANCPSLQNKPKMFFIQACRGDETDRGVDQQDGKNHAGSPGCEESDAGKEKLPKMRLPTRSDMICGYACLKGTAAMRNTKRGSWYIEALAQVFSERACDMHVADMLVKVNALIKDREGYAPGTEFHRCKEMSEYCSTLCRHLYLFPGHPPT

[38] = target: T17, Caspase 4 (Homo sapiens, UniProt P49662); test: Protease panel: Caspase 4; type: biochemical; conditions: supplement panel table, test and control compound
T17 construct: Reaction Biology Corporation (contract testing)

[39] = target: T18, Caspase 5 (Homo sapiens, UniProt P51878); test: Protease panel: Caspase 5; type: biochemical; conditions: supplement panel table, test and control compound
T18 construct: Reaction Biology Corporation (contract testing)

[40] = target: T19, Caspase 8 (Homo sapiens, UniProt Q14790); test: Protease panel: Caspase 8; type: biochemical; conditions: supplement panel table, test and control compound
T19 construct: Reaction Biology Corporation (contract testing)
T19 sequence (Q14790 217-479, species assumed): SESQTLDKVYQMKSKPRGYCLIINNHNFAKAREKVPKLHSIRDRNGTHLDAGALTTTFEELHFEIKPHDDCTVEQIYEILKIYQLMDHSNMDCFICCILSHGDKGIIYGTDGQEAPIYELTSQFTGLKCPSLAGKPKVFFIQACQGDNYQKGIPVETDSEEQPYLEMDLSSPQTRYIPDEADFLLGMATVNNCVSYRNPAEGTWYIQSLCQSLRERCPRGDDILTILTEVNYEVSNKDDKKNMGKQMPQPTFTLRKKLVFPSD

[41] = target: T20, Caspase 9 (Homo sapiens, UniProt P55211); test: Protease panel: Caspase 9; type: biochemical; conditions: supplement panel table, test and control compound
T20 construct: Reaction Biology Corporation (contract testing)

[42] = target: T21, Caspase 10 (Homo sapiens, UniProt Q92851); test: Protease panel: Caspase 10; type: biochemical; conditions: supplement panel table, test and control compound
T21 construct: Reaction Biology Corporation (contract testing)

[43] = target: T22, Caspase 11 (Mus musculus, UniProt P70343); test: Protease panel: Caspase 11; type: biochemical; conditions: supplement panel table, test and control compound
T22 construct: Reaction Biology Corporation (contract testing)

[44] = target: Kallikrein 1 (Homo sapiens, UniProt P06870); test: Protease panel: Kallikrein 1; type: biochemical; conditions: supplement panel table, test and control compound
Kallikrein 1, sequence (P06870 25-262, species assumed): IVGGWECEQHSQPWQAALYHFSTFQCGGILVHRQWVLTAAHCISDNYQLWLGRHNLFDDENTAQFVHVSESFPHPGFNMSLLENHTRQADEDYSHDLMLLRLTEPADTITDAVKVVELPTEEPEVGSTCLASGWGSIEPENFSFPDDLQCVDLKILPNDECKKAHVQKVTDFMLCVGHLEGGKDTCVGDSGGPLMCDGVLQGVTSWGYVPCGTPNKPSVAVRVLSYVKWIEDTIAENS

[45] = target: T23, Neprilysin (Homo sapiens, UniProt P08473); test: Protease panel: Neprilysin; type: biochemical; conditions: supplement panel table, test and control compound
T23 construct: Reaction Biology Corporation (contract testing)
Method: as §1

[46] = read-out: M. smegmatis ΔprcAB IC50 (μM) for ClpP1P2, whole-cell RFP-SsrA reporter
[47] = read-out: IC50 (μM) for HepG2 proteasome, HepG2 cells, 2 h treatment, chymotrypsin-like site

O=C(N[C@@H](Cc1ccc(O)cc1)C(=O)N[C@@H](CCc1ccccc1)B(O)O)c1cnccn1 [Compound 57]
M. smegmatis ΔprcAB MIC50 [1]: 8 ± 2.8 µM
improvement of M. tuberculosis MIC50 over compound 1 [2]: 5 fold
MIC50 (μM) against M. tuberculosis H37Rv ([2]; 5 days): 0.8 ± 0 µM (≈ 0.359 µg/mL)
MIC50 ([2]; Mycobacterium tuberculosis, H37RV, 120 h, 5 days, read-out: MIC50 (μM) against M. tuberculosis H37Rv): 0.8 µM (≈ 0.359 µg/mL)
MIC90 ([2]; Mycobacterium tuberculosis, H37RV, 120 h, 5 days, read-out: MIC90 (μM) against M. tuberculosis H37Rv): 3 µM (≈ 1.34 µg/mL)
IC50 ([3]; M. smegmatis ΔprcAB IC50 (μM) for ClpP1P2, whole-cell RFP-SsrA reporter): 7.5 ± 4.5 µM
IC50 [4]: 0.533 ± 0.103 µM

CC(C)C[C@H](NC(=O)[C@H]1O[C@@H]1C(=O)O)C(=O)NCCCCN=C(N)N [Compound E64]
IC50 [5]: 0.098 µM
IC50 [6]: 0.00987 µM
IC50 [7]: 0.607 µM
IC50 [8]: 0.198 µM
IC50 [9]: 0.00999 µM
IC50 [10]: 0.00939 µM
IC50 [11]: 0.0118 µM
IC50 [12]: 0.000936 µM

CC(=O)N[C@@H](CC(=O)O)C(=O)N[C@@H](CCC(=O)O)C(=O)N[C@H](C(=O)N[C@H](C=O)CC(=O)O)C(C)C [DEVD-CHO]
IC50 [13]: 0.0011 µM

CNC(=O)[C@H](Cc1c[nH]c2ccccc12)NC(=O)[C@@H](CC(=O)NO)CC(C)C [GM6001]
IC50 [14]: 0.0811 µM
IC50 [15]: 0.0163 µM
IC50 [16]: 0.00438 µM
IC50 [17]: 0.00117 µM
IC50 [18]: 0.00124 µM
IC50 [19]: 0.535 nM
IC50 [20]: 9.1 nM

CCOC(=O)c1ccc(OC(=O)CCCCCN=C(N)N)cc1 [Gabexate mesylate (GM), Gabexate mesylate]
IC50 [21]: 1.81 µM
IC50 [22]: 5.3 µM
IC50 [23]: 8.06 µM
IC50 [24]: 29.3 µM
IC50 [25]: 0.351 µM
IC50 [26]: 17.6 µM
IC50 [27]: 0.969 µM
IC50 [28]: 7.56 µM
IC50 [29]: 0.475 µM
IC50 [30]: 0.936 µM
IC50 [31]: 3.73 µM
IC50 [32]: 0.0669 µM
IC50 [33]: 0.0873 µM
IC50 [34]: 0.0506 µM
IC50 [35]: 0.1 µM

CC[C@H](C)[C@H](NC(C)=O)C(=O)N[C@@H](CCC(=O)O)C(=O)N[C@H](C(=O)N[C@H](C=O)CC(=O)O)[C@@H](C)O [IETD-CHO] (Ac-IETD-aldehyde)
IC50 [36]: 0.0545 µM
IC50 [37]: 0.626 µM
IC50 [38]: 2.73 µM
IC50 [39]: 0.0213 µM
IC50 [40]: 0.00166 µM
IC50 [41]: 0.0553 µM
IC50 [42]: 0.0177 µM
IC50 [43]: 0.68 µM

CC(=O)N[C@@H](CC(C)C)C(=O)N[C@@H](CC(C)C)C(=O)N[C@H](C=O)CCCNC(=N)N [Leupeptin, reference compound]
IC50 [44]: 26.7 µM

CC(C)C[C@H](NP(=O)(O)O[C@@H]1O[C@@H](C)[C@H](O)[C@@H](O)[C@H]1O)C(=O)N[C@@H](Cc1c[nH]c2ccccc12)C(=O)O [Phosphoramidon]
IC50 [45]: 0.0422 µM

((R)-1-((S)-2-(indolizine-2-carboxamido)-3-phenylpropanamido)-3-methylbutyl)boronic acid [Compound 40]
M. smegmatis ΔprcAB MIC50 [1]: 8.3 ± 4.5 µM
IC50 [3, 46]: 9 ± 3 µM
IC50 [4, 47]: 0.023 ± 0.008 µM

((R)-1-((S)-2-(indolizine-3-carboxamido)-3-phenylpropanamido)-3-methylbutyl)boronic acid [Compound 41]
M. smegmatis ΔprcAB MIC50 [1]: 15 ± 0 µM
IC50 [3, 46]: 11.3 ± 0.9 µM
IC50 [4, 47]: 0.006 ± 0.001 µM
